The values that follow come from patent US12269805B2, “Inhibitors of platelet function and methods for use of the same” (THE REGENTS OF THE UNIVERSITY OF MICHIGAN, priority 2018, dated 2025).

Like-named read-outs stand apart in the source and are kept apart here.

The test system of series [1] is phospho-VASP (serine 157) in washed human platelets. Put plainly: Vasodilator-stimulated phosphoprotein phosphorylation in human platelets (Western blot). It is filed as cell-based. Particulars: washed human platelets treated for one minute; 5 nm to 20 μM tested. The method, then: Citrated whole blood was centrifuged (200 g for 10 min) to isolate platelet-rich plasma. Platelet-rich plasma was treated with acid citrate dextrose (2.5% sodium citrate, 1.5% citric acid, 2.0% D-glucose) and apyrase (0.02 U/mL), and then centrifuged (2000 g for 10 mins) to pellet the platelets. Platelets were resuspended at 3.0×10^8 platelets/mL in Tyrode's buffer (10 mM HEPES, 12 mM NaHCO3, 127 mM NaCl, 5 mM KCl, 0.5 mM NaH2PO4, 1 mM MgCl2, and 5 mM glucose) unless otherwise stated.
Washed platelets were treated with forskolin (0.5 μM), 12-HETre (20 μM), or compound A3 (5 nm, 10 nm, 25 nm, 50 nm, 100 n, 250 nm, 1 μM, 5 μM, 10 μM, and 20 μM) for one minute, then directly lysed in 5× Laemmli sample buffer (1.5 M Tris-HCl, pH 6.8, glycerol, 5% β-mercaptoethanol, 10% sodium dodecyl sulfate (SDS), and 1% bromophenol blue). The samples were boiled for five minutes and then run on a 10% SDS-PAGE gel. The levels of total and phospho-VASP (serine 157) were quantified by Western Blot using an Odyssey imaging system (LI-CoR). […] Compound A3 induced VASP phosphorylation at a concentration as low as 10 nm.
(In general: In western blotting, separated proteins are transferred to a membrane and probed.)

Series [2] in a line: Pharmacokinetic study: compound concentration in mouse blood plasma after PO and IV administration. The format is in vivo, mice. The conditions noted are these: for Concentration in Plasma, Mouse 2: value marked as outlier; for concentration at 2 h / concentration at 4 h / concentration at 7 h: mouse, plasma, 30 mg/kg. On the procedure: The blood plasma concentration of compound A3 in mice was determined following per os, oral compound administration (“PO”) and intravenous (“IV”) administration
Calibration curve. The concentration range was evaluated from 1-5000 ng/ml for compound A3. The curve was built with linear regression with weighing (1/X2). The linear regression analysis was performed by plotting the peak area ratio (y) against the concentration (x) in ng/mL.
Instrument Conditions. The LC-MS and mass spectrometry conditions for the compounds tested are shown below.
Results. The individual and average compound A3 concentration-time data for IV and PO dosed groups are listed in Table 1, and graphically presented in FIG. 1.

Series [3] relates to thrombus formation. Particulars: cited from earlier work.
For series [4], the system named is platelets. Particulars: cited from earlier work.

With `CC(C)N(CCCCSc1n[nH]c(=O)[nH]1)c1cnc(-c2ccccc2)c(-c2ccccc2)n1` [Compound A3, 5-((4-((5,6-diphenylpyrazin-2-yl)(isopropyl)amino)butyl)thio)-2,4-dihydro-3H-1,2,4-triazol-3-one], the “Lowest concentration that induced VASP phosphorylation” value in series [1] came out at 10 nm. For the same compound, the “Concentration in Plasma, Mouse 2” value in series [2] (PO 30 mg/kg, 2 h) is on record as “*809.0 ng/ml”; in series [2] (PO 30 mg/kg, 4 h) it was “*812.7 ng/ml”. For the same compound, the concentration at 2 h was 164 ng/mL in series [2] (iv, IV 30 mg/kg, 2 h, n=3, read-out: Concentration in Plasma, Mean); 203 ng/mL in series [2] (iv, IV 30 mg/kg, 2 h, read-out: Concentration in Plasma, Mouse 1); 158 ng/mL in series [2] (iv, IV 30 mg/kg, 2 h, read-out: Concentration in Plasma, Mouse 2); 131 ng/mL in series [2] (iv, IV 30 mg/kg, 2 h, read-out: Concentration in Plasma, Mouse 3); 119 ng/mL in series [2] (po, PO 30 mg/kg, 2 h, outlier left out, read-out: Concentration in Plasma, Mean); 186 ng/mL in series [2] (po, PO 30 mg/kg, 2 h, read-out: Concentration in Plasma, Mouse 1). Also, the concentration at 2 h in series [2] (po, PO 30 mg/kg, 2 h, read-out: Concentration in Plasma, Mouse 3) was determined as 52.5 ng/mL. Further, the concentration at 4 h was 106 ng/mL in series [2] (iv, IV 30 mg/kg, 4 h, n=3, read-out: Concentration in Plasma, Mean); 135 ng/mL in series [2] (iv, IV 30 mg/kg, 4 h, read-out: Concentration in Plasma, Mouse 1); 80.3 ng/mL in series [2] (iv, IV 30 mg/kg, 4 h, read-out: Concentration in Plasma, Mouse 2); 102 ng/mL in series [2] (iv, IV 30 mg/kg, 4 h, read-out: Concentration in Plasma, Mouse 3); 34.5 ng/mL in series [2] (po, PO 30 mg/kg, 4 h, outlier left out, read-out: Concentration in Plasma, Mean); 46.5 ng/mL in series [2] (po, PO 30 mg/kg, 4 h, read-out: Concentration in Plasma, Mouse 1). Also, the concentration at 4 h in series [2] (po, PO 30 mg/kg, 4 h, read-out: Concentration in Plasma, Mouse 3) came out at 22.5 ng/mL. The concentration at 7 h turned out to be 97.6 ng/mL in series [2] (iv, IV 30 mg/kg, n=3, read-out: Concentration in Plasma, Mean); 123 ng/mL in series [2] (iv, IV 30 mg/kg, read-out: Concentration in Plasma, Mouse 1); 76.9 ng/mL in series [2] (iv, IV 30 mg/kg, read-out: Concentration in Plasma, Mouse 2); 92.7 ng/mL in series [2] (iv, IV 30 mg/kg, read-out: Concentration in Plasma, Mouse 3); 28.3 ng/mL in series [2] (po, PO 30 mg/kg, n=3, read-out: Concentration in Plasma, Mean); 46.3 ng/mL in series [2] (po, PO 30 mg/kg, read-out: Concentration in Plasma, Mouse 1). Further, the concentration at 7 h in series [2] (po, PO 30 mg/kg, read-out: Concentration in Plasma, Mouse 2) turned out to be 19.1 ng/mL; in series [2] (po, PO 30 mg/kg, read-out: Concentration in Plasma, Mouse 3), 19.3 ng/mL.
Take `CCCCC/C=C\C[C@H](O)/C=C/C=C\CCCCCCC(=O)O` [Compound 12-HETrE, 12(S)-hydroxyeicosatetrienoic acid]: in series [3] (irrespective of 12-LOX expression), the “Thrombus formation following vessel injury” value is “potently impaired thrombus formation”.
Regarding `CCCCC/C=C\C/C=C\C/C=C\CCCCCCC(=O)O` [DGLA, Dihomo-γ-linolenic acid], in series [3] (12-LOX−/− mice), the Thrombus formation entry is “unable to inhibit thrombus formation”. In addition, in series [3] (following an insult to the vessel wall), the “Platelet thrombus formation in vivo” value is recorded as “inhibited platelet thrombus formation in vivo”. Besides, in series [4], the “Platelet aggregation ex vivo” value was “inhibit platelet aggregation ex vivo”.
